Laboratory results from the kinase profiling compilation of Christmann-Franck et al. (2016).

Experiments:
Assay in all cases: radiometric filter-binding kinase assay
[1] = tested on: RPS6KB1 (human), P23443 [T412E]
MAPK8 (human) = MAPK8 (human) (UniProt P45983)
MAPKAPK2 (human) = MAPKAPK2 (human) (UniProt P49137)
PAK4 (human) = PAK4 (human) (UniProt O96013)
EPHB2 (human) = EPHB2 (human) (UniProt P29323)
MARK2 (human) = MARK2 (human) (UniProt Q7KZI7)
CSNK1D (human) = CSNK1D (human) (UniProt P48730)
MARK1 (human) = MARK1 (human) (UniProt Q9P0L2)
MKNK2 (human) = MKNK2 (human) (UniProt Q9HBH9)
CHEK2 (human) = CHEK2 (human) (UniProt O96017)
CHEK2 (human), sequence (O96017 whole entry, looked up): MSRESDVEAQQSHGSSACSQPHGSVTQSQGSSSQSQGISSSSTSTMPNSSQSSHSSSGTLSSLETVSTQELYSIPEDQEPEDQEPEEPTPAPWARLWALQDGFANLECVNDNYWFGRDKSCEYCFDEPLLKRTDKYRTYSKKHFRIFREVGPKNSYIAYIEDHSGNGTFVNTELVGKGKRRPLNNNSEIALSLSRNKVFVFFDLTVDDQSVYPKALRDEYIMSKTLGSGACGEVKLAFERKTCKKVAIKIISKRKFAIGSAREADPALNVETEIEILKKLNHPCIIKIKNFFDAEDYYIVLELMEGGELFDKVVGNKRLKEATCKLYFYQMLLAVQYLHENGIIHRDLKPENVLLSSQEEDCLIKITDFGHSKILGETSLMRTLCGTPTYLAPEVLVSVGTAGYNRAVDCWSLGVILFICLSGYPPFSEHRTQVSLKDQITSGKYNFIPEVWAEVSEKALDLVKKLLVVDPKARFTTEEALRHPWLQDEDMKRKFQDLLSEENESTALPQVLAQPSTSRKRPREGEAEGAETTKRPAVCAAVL

NUAK1 (human) = NUAK1 (human) (UniProt O60285)
MKNK1 (human) = MKNK1 (human) (UniProt Q9BUB5)
MKNK1 (human), sequence (Q9BUB5 whole entry, looked up): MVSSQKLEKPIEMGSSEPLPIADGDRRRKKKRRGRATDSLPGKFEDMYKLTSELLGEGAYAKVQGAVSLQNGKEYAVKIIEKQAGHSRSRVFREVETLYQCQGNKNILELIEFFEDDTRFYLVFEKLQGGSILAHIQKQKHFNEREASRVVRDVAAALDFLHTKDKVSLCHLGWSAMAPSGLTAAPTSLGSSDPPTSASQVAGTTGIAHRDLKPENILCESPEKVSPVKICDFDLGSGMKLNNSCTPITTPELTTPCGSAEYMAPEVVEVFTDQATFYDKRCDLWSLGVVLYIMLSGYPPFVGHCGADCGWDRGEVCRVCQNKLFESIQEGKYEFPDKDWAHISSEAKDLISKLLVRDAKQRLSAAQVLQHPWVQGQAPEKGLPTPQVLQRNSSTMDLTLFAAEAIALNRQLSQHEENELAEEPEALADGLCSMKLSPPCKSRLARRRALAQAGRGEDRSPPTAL

MARK3 (human) = MARK3 (human) (UniProt P27448)
MARK3 (human), sequence (P27448 whole entry, looked up): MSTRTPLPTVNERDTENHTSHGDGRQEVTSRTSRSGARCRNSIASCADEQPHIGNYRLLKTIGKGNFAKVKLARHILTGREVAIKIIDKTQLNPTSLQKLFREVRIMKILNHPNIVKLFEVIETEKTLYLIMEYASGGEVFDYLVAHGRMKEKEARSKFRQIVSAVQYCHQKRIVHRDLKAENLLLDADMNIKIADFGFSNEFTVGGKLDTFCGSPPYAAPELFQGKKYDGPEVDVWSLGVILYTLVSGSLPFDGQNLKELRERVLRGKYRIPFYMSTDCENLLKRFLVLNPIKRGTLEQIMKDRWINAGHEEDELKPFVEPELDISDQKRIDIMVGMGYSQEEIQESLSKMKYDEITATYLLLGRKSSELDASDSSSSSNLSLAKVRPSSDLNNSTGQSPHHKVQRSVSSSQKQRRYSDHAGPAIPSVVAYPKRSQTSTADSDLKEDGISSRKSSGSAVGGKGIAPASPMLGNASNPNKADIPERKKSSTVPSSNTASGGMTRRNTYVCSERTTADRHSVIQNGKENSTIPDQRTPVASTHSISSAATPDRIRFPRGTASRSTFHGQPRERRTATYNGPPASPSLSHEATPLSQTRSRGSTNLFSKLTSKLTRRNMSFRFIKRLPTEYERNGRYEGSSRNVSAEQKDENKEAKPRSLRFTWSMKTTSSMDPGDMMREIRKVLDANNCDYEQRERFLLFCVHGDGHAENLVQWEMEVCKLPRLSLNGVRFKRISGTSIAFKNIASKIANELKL

RPS6KA1 KD1 KD2 (human) = RPS6KA1 KD1 KD2 (human) (UniProt Q15418)
MAPK3 (human) = MAPK3 (human) (UniProt P27361)
IRAK4 (human) = IRAK4 (human) (UniProt Q9NWZ3)
[2] = tested on: AKT1 (human), P31749 [S473D]
STK3 (human) = STK3 (human) (UniProt Q13188)
CaMK1 (human) = CaMK1 (human) (UniProt Q14012)
NEK2 (human) = NEK2 (human) (UniProt P51955)
NTRK1 (human) = NTRK1 (human) (UniProt P04629)
TBK1 (human) = TBK1 (human) (UniProt Q9UHD2)
TBK1 (human), sequence (Q9UHD2 whole entry, looked up): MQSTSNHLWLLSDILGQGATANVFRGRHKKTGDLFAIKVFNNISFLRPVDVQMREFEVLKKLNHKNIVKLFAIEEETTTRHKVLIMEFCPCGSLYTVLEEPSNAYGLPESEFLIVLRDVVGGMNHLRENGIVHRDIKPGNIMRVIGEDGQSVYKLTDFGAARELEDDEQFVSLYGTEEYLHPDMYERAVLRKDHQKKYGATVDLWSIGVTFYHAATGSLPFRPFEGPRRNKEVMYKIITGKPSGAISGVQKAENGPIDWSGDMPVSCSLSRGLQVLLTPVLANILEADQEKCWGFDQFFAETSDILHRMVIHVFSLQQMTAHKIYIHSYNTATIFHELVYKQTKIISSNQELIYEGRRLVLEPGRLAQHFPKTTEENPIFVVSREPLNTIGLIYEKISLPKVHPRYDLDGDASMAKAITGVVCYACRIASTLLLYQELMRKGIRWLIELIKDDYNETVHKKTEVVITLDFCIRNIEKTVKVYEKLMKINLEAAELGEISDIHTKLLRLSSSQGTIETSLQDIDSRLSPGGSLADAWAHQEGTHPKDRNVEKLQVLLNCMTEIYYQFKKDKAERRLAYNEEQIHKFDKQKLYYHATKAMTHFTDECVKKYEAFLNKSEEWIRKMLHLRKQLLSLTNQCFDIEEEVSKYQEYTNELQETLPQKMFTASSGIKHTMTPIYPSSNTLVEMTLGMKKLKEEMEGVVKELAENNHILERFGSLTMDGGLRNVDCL

IKBKB (human) = IKBKB (human) (UniProt O14920)
IKBKB (human), sequence (O14920 whole entry, looked up): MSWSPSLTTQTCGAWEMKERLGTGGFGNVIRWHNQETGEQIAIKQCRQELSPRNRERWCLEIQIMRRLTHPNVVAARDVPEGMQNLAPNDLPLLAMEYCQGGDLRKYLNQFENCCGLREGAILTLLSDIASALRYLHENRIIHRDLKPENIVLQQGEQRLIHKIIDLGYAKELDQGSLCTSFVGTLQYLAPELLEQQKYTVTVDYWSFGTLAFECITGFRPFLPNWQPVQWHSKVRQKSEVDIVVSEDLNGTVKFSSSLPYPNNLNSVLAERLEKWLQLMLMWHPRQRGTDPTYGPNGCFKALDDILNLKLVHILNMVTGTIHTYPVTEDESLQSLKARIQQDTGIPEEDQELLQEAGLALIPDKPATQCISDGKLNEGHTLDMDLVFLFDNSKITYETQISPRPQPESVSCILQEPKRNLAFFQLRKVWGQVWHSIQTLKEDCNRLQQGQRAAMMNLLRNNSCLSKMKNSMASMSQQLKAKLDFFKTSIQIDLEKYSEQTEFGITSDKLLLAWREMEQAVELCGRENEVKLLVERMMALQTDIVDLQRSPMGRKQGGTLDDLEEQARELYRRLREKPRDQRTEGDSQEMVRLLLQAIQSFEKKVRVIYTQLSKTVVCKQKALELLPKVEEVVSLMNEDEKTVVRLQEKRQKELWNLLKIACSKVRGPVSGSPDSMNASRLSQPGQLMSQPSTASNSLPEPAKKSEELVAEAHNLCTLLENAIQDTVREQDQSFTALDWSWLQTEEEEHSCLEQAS

MAPK14 (human) = MAPK14 (human) (UniProt Q16539)
MAPK9 (human) = MAPK9 (human) (UniProt P45984)
MAP2K1 (human) = MAP2K1 (human) (UniProt Q02750)
MAP3K11 (human) = MAP3K11 (human) (UniProt Q16584)
JAK2 JH1 JH2 (human) = JAK2 JH1 JH2 (human) (UniProt O60674)
DYRK3 (human) = DYRK3 (human) (UniProt O43781)
IKBKE (human) = IKBKE (human) (UniProt Q14164)
PIM1 (human) = PIM1 (human) (UniProt P11309)
PIM1 (human), sequence (P11309 whole entry, looked up): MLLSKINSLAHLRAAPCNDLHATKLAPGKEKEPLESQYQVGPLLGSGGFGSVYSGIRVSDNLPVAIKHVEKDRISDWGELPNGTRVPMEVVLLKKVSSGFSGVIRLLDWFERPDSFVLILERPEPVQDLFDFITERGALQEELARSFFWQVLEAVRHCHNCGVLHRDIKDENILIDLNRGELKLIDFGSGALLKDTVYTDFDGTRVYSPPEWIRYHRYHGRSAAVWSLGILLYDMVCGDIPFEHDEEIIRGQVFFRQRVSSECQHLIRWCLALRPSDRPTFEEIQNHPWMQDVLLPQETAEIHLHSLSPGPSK

TTK (human) = TTK (human) (UniProt P33981)
NEK6 (human) = NEK6 (human) (UniProt Q9HC98)
NEK6 (human), sequence (Q9HC98 whole entry, looked up): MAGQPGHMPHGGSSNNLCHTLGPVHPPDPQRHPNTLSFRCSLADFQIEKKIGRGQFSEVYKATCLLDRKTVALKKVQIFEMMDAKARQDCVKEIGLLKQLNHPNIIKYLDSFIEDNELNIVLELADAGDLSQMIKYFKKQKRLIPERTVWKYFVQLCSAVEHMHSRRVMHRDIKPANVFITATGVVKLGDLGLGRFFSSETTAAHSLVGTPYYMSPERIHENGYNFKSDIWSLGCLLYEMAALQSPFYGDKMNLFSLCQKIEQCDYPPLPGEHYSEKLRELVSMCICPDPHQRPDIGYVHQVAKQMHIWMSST

[3] = biological target: STK11 CAB39 STRADA (human) (UniProt Q9Y376+Q7RTN6+Q15831)
DYRK1A (human) = DYRK1A (human) (UniProt Q13627)

RPS6KB1 (human), P23443 [T412E], sequence (P23443 whole entry T412E, looked up): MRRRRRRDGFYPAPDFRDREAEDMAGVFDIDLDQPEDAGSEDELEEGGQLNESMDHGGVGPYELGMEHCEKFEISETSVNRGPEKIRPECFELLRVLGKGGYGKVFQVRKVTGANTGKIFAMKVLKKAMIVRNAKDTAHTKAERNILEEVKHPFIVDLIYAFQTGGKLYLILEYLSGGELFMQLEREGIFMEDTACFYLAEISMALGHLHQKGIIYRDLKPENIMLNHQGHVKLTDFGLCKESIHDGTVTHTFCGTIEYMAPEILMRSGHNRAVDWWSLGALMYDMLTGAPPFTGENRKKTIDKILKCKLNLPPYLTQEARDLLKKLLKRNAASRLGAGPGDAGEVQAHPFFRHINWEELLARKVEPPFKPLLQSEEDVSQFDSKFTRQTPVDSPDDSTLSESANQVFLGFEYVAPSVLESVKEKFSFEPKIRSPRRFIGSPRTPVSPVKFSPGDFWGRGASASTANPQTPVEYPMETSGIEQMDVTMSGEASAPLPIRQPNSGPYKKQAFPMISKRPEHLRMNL
PAK4 (human), sequence (O96013 whole entry, looked up): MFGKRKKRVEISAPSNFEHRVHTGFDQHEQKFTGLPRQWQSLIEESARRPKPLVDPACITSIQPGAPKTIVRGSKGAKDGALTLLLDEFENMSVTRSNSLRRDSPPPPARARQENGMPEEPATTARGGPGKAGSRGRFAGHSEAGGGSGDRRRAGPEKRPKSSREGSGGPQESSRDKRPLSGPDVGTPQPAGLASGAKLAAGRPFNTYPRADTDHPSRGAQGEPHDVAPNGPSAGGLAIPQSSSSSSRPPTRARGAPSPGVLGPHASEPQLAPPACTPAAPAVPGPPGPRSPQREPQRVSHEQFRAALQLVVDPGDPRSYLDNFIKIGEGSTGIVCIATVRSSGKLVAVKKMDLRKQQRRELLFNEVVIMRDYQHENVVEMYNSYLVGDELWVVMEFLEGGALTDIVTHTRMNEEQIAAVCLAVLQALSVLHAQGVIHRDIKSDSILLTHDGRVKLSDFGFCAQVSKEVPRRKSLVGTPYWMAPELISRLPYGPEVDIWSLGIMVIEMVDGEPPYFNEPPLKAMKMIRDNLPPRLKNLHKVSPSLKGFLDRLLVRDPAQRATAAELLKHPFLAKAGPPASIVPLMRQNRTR

residual activity ([1]; compound 1.0 µM): 56%
residual activity ([1]; compound 5.0 µM): 14%
residual activity ([1]; compound 10.0 µM): 3%
residual activity (MAPK8 (human); compound 1.0 µM): 99%
residual activity (MAPK8 (human); compound 5.0 µM): 76%
residual activity (MAPK8 (human); compound 10.0 µM): 89%
residual activity (MAPKAPK2 (human); compound 1.0 µM): 90%
residual activity (MAPKAPK2 (human); compound 5.0 µM): 69%
residual activity (MAPKAPK2 (human); compound 10.0 µM): 76%
residual activity (PAK4 (human); compound 1.0 µM): 119%
residual activity (PAK4 (human); compound 5.0 µM): 45%
residual activity (PAK4 (human); compound 10.0 µM): 98%
residual activity (EPHB2 (human); compound 1.0 µM): 137%
residual activity (EPHB2 (human); compound 5.0 µM): 169%
residual activity (MARK2 (human); compound 1.0 µM): 85%
residual activity (MARK2 (human); compound 5.0 µM): 66%
residual activity (CSNK1D (human); compound 1.0 µM): 96%
residual activity (CSNK1D (human); compound 5.0 µM): 94%
residual activity (MARK1 (human); compound 1.0 µM): 65%
residual activity (MARK1 (human); compound 5.0 µM): 38%
residual activity (MKNK2 (human); compound 1.0 µM): 97%
residual activity (MKNK2 (human); compound 5.0 µM): 78%
residual activity (MKNK2 (human); compound 10.0 µM): 87%
residual activity (CHEK2 (human); compound 1.0 µM): 58%
residual activity (CHEK2 (human); compound 5.0 µM): 34%
residual activity (CHEK2 (human); compound 10.0 µM): 94%
residual activity (NUAK1 (human); compound 1.0 µM): 11%
residual activity (NUAK1 (human); compound 5.0 µM): 6%
residual activity (MKNK1 (human); compound 1.0 µM): 88%
residual activity (MKNK1 (human); compound 5.0 µM): 76%
residual activity (MKNK1 (human); compound 10.0 µM): 100%
residual activity (MARK3 (human); compound 1.0 µM): 81%
residual activity (MARK3 (human); compound 5.0 µM): 63%
residual activity (MARK3 (human); compound 10.0 µM): 69%
residual activity (RPS6KA1 KD1 KD2 (human); compound 1.0 µM): 78%
residual activity (RPS6KA1 KD1 KD2 (human); compound 5.0 µM): 62%
residual activity (MAPK3 (human); compound 1.0 µM): 9%
residual activity (MAPK3 (human); compound 5.0 µM): 6%
residual activity (MAPK3 (human); compound 10.0 µM): 8%
residual activity (IRAK4 (human); compound 1.0 µM): 47%
residual activity (IRAK4 (human); compound 5.0 µM): 9%
residual activity ([2]; compound 1.0 µM): 87%
residual activity ([2]; compound 5.0 µM): 62%
residual activity ([2]; compound 10.0 µM): 85%
residual activity (STK3 (human); compound 1.0 µM): 5%
residual activity (STK3 (human); compound 5.0 µM): 6%
residual activity (STK3 (human); compound 10.0 µM): 51%
residual activity (CaMK1 (human); compound 1.0 µM): 6%
residual activity (CaMK1 (human); compound 5.0 µM): 3%
residual activity (CaMK1 (human); compound 10.0 µM): 7%
residual activity (NEK2 (human); compound 1.0 µM): 10%
residual activity (NEK2 (human); compound 5.0 µM): 8%
residual activity (NEK2 (human); compound 10.0 µM): 54%
residual activity (NTRK1 (human); compound 1.0 µM): 63%
residual activity (NTRK1 (human); compound 5.0 µM): 19%
residual activity (TBK1 (human); compound 1.0 µM): 59%
residual activity (TBK1 (human); compound 5.0 µM): 22%
residual activity (TBK1 (human); compound 10.0 µM): 77%
residual activity (IKBKB (human); compound 1.0 µM): 33%
residual activity (IKBKB (human); compound 5.0 µM): 6%
residual activity (IKBKB (human); compound 10.0 µM): 68%
residual activity (MAPK14 (human); compound 1.0 µM): 80%
residual activity (MAPK14 (human); compound 5.0 µM): 68%
residual activity (MAPK14 (human); compound 10.0 µM): 83%
residual activity (MAPK9 (human); compound 1.0 µM): 94%
residual activity (MAPK9 (human); compound 5.0 µM): 80%
residual activity (MAPK9 (human); compound 10.0 µM): 94%
residual activity (MAP2K1 (human); compound 1.0 µM): 85%
residual activity (MAP2K1 (human); compound 5.0 µM): 18%
residual activity (MAP2K1 (human); compound 10.0 µM): 96%
residual activity (MAP3K11 (human); compound 1.0 µM): 9%
residual activity (MAP3K11 (human); compound 5.0 µM): 2%
residual activity (JAK2 JH1 JH2 (human); compound 1.0 µM): 72%
residual activity (JAK2 JH1 JH2 (human); compound 5.0 µM): 34%
residual activity (DYRK3 (human); compound 1.0 µM): 54%
residual activity (DYRK3 (human); compound 5.0 µM): 33%
residual activity (DYRK3 (human); compound 10.0 µM): 74%
residual activity (IKBKE (human); compound 1.0 µM): 7%
residual activity (IKBKE (human); compound 5.0 µM): 4%
residual activity (IKBKE (human); compound 10.0 µM): 70%
residual activity (PIM1 (human); compound 1.0 µM): 37%
residual activity (PIM1 (human); compound 5.0 µM): 15%
residual activity (PIM1 (human); compound 10.0 µM): 46%
residual activity (TTK (human); compound 1.0 µM): 68%
residual activity (TTK (human); compound 5.0 µM): 40%
residual activity (NEK6 (human); compound 1.0 µM): 34%
residual activity (NEK6 (human); compound 5.0 µM): 11%
residual activity (NEK6 (human); compound 10.0 µM): 65%
residual activity ([3]; compound 1.0 µM): 60%
residual activity ([3]; compound 5.0 µM): 17%
residual activity (DYRK1A (human); compound 1.0 µM): 47%
residual activity (DYRK1A (human); compound 5.0 µM): 19%
residual activity (DYRK1A (human); compound 10.0 µM): 83%
SMILES: Oc1ccc2ccccc2c1SSc1c(O)ccc2ccccc12
